Test results taken from BindingDB's records for doi:10.1021/ja011034p (University of Pennsylvania, 2001).

Target: Carbonic anhydrase 2 [F130V] (Homo sapiens, UniProt P00918, F130V)
Test: In vitro binding of inhibitor to hCA-II
Settings: pH 7.4; 37 °C
Protocol: Inhibitor binding to CA II was determined using a fluorescence competition assay. Displacement of dansylamide and binding of the inhibitor was determined by measuring and comparing the average fluorescence intensities of the treated versus control reactions. Binding constants were estimated from a Dixon plot of the data (reciprocal of the average fluorescence intensity versus inhibitor concentration)

Row | Kd [nM] | SMILES
1 | 1.6 | NS(=O)(=O)c1ccc(C(=O)NCc2cccc(F)c2F)cc1 [N-[(2,3-difluorophenyl)methyl]-4-sulfamoylbenzamide]
2 | 3.9 | NS(=O)(=O)c1ccc(C(=O)NCc2c(F)cccc2F)cc1 [N-[(2,6-difluorophenyl)methyl]-4-sulfamoylbenzamide]
3 | 2.3 | NS(=O)(=O)c1ccc(C(=O)NCc2ccccc2F)cc1 [N-[(2-fluorophenyl)methyl]-4-sulfamoylbenzamide]
4 | 2 | NS(=O)(=O)c1ccc(C(=O)NCc2c(F)c(F)c(F)c(F)c2F)cc1 [N-[(2,3,4,5,6-pentafluorophenyl)methyl]-4-sulfamoylbenzamide]
